Measured values as given in US20250032476A1, “ALPHA-2A ADRENERGIC RECEPTOR MODULATORS AND USES THEREOF” (The Regents of the University of California, priority 2021, published 2025).
Like-named read-outs stand apart in the source and are kept apart here.

Experiments:
[1] = molecular target: T1, human α2AAR (Homo sapiens (Human), UniProt P08913); test: Radioligand competition binding to human α2AAR (HEK293T membranes, [3H]RX82,1002); settings: human α2AAR
[2] = Pharmacokinetics in mice (plasma, brain, CSF); type: in vivo
[3] = Metabolic stability in male rat liver microsomes; type: in vitro ADME; settings: 1 hour
Procedure: Metabolic stability studies. Metabolic stability of the test compounds was assessed using male pooled rat liver microsomes (Sprague Dawley, Sigma Aldrich) as previously described (93, 94). The reactions were carried out in 2 mL polyethylene tubes on a rotator carousel (Stuart™ SB3) in an incubator at 37° C. […] Transformation reactions were initiated by the addition of 50 μL of cofactor solution (NADPH, Carl Roth, final concentration 1 mM). […] Precipitated protein was removed by centrifugation (1 min, 16,000 rcf) and the supernatants were analysed by HPLC/MS on a Thermo Scientific Dionex Ultimate 3000 HPLC system equipped with a Zorbax Eclipse XDB-C8 column (4.6×150 mm, 5 μm), a DAD detector (210 nm, 230 nm, 254 nm, 310 nm), and a BRUKER amaZon SL mass spectrometer with ESI source. The following binary eluent system (methanol in water+0.1% (v/v) formic acid) was employed: 10% for 1 min, 10% to 100% in 20 min, 100% for 5 min, 100% to 10% in 2 min, 10% for 2 min, flow 0.4 mL/min. […] Control experiments were conducted in the absence of cofactor solution to determine non-specific binding to matrix. The integral (AUC) of the extracted ion chromatograms (EIC) was used to analyze the concentration of the remaining substrates. […]

[4] = system: SNI mice; test: Spared-nerve injury (SNI) model of neuropathic pain, von Frey mechanical thresholds; type: in vivo
Procedure: Spared-nerve injury (SNI) model of neuropathic pain. Under isoflurane anesthesia, two of the three branches of the sciatic nerve were ligated and transected distally, leaving the sural nerve intact. Behavior was tested 7 to 14 days after injury and in situ hybridization was performed one week post-injury.

[5] = molecular target: ALPHA-2A ADRENERGIC RECEPTOR (Homo sapiens (Human), UniProt P08913); test: Gi recruitment (G protein); type: cell-based; settings: Gi recruitment
[6] = molecular target: T1, human α2AAR; test: Gαi G protein activation, BRET biosensor assay in HEK293T cells; settings: for Emax: HEK-293T
[7] = molecular target: T1, human α2AAR; test: β-arrestin-2 recruitment, BRET biosensor assay in HEK293T cells; settings: HEK-293T
Procedure: Bioluminescense resonance energy transfer. G protein mediated activation of human α2AAR and D2long was monitored with Gαi1-RLucII (71, 72) together with Gβ1 and Gγ1-GFP10. Arrestin recruitment was performed by enhanced bystander BRET using CAAX-rGFP and β-arrestin-2-RLucII as biosensors (all biosensors are provided from M. Bouvier, Université de Montréal, Canada) (71, 73) in the presence of GRK2 as described (66, 74). In brief, HEK293T cells were transfected with a total amount of 3.3 μg DNA per 10^6 cells using linear polyethyleneimine (PEI, Polysciences, 3:1 PEI:DNA ratio) and transferred into 96-well half-area plates (Greiner, Frickenhausen, Germany) at a density of 10,000 cells per well and incubated for 48 hrs. Medium was exchanged with PBS (Hank's balanced salt solution) and cells were stimulated with ligands at 37° C. for 10 min for Gαi stimulation or arrestin recruitment, respectively.

[8] = mouse, plasma, ip, I.P. 10 mg/kg

T1 sequence (P08913 whole entry): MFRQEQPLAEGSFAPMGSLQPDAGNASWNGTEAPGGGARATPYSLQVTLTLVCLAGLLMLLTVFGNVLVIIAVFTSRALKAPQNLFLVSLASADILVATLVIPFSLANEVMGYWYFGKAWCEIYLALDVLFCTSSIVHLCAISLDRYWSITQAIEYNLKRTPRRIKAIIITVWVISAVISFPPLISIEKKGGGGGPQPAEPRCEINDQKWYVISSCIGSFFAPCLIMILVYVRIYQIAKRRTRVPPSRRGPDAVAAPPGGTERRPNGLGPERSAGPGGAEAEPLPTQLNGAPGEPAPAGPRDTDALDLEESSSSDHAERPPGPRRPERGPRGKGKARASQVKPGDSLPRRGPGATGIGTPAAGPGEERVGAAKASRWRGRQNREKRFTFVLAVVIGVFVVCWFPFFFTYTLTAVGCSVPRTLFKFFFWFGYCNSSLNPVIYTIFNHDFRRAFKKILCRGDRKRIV
ALPHA-2A ADRENERGIC RECEPTOR, sequence (P08913 whole entry): as above

Fc1cccc2c(Nc3ccncc3)cccc12 [Compound 7075, N-(5-fluoronaphthalen-1-yl)pyridin-4-amine]
Ki ([1]; mean ± SEM (Table 3), read-out: Ki): 37 ± 5.1 nM | Ki ([1]; mean ± s.e.m., read-out: Ki for α2AAR): 37 ± 5.1 nM | Fold greater CSF Cmax than PS75 ([2]; 10 mg/kg i.p.): 4 fold | half-life ([2]; C57BL/6N ('9087, '7075, '4622), CD-1 (PS75), mouse, CSF, ip, I.P. 10 mg/kg, read-out: T ½ CSF (converted)): 13.2 min | AUC Brain ([2]; I.P. 10 mg/kg): 814000 ng·min/mL | AUC CSF ([2]; I.P. 10 mg/kg): 12000 ng·min/mL | Cmax Brain ([2]; I.P. 10 mg/kg): 8.57 µg/mL | Cmax CSF ([2]; I.P. 10 mg/kg): 0.412 µg/mL | half-life ([2]; mouse, brain, ip, I.P. 10 mg/kg, read-out: T ½ Brain (converted)): 43.8 min | AUC [2, 8]: 0.952 µg·h/mL | Cmax [2, 8]: 0.694 µg/mL | half-life ([2]; mouse, plasma, ip, I.P. 10 mg/kg, read-out: T ½ Plasma (converted)): 38.4 min | Metabolic stability, compound remaining [3]: remain largely unmodified after 1 hour | Effect of atipamezole on the agonist's effect in SNI mice ([4]; atipamezole 2 mg/kg, 15 minutes prior): reversed by atipamezole | Mechanical thresholds / anti-allodynic effect in SNI mice ([4]; systemic injection): exhibited anti-allodynic effects | Reversal of mechanical hypersensitivity in SNI mice ([4]; systemic injection): completely reversed the mechanical hypersensitivity | functional classification (agonist / weak agonist) ([5]; Table 6, result in words): agonist | EC50 ([5]; Table 6, read-out: EC50): 4.1 nM | Emax ([5]; Table 6, read-out: Emax (%)): 89% | Fold increased Gi potency compared to ‘9087 [6]: 13 fold | EC50 ([6]; Gi EC50 ± SE, BRET biosensor, human α2AAR (Table 3)): 4.1 nM | EC50 ([6]; Gαi EC50, BRET biosensor, HEK293T, human α2AAR): 4.1 nM | Emax ([6]; read-out: Gi Emax ± SEM): 93% | Emax ([6]; read-out: Gαi Emax): 93% | Emax ([7]; read-out: β-Arr-2 Emax @ 0.1 mM): 10% | Emax at 100 µM ([7]; read-out: β-arrestin-2 Emax @ 0.1 mM): 10 ± 7%
